Data taken from patent US9409914B2, “Triazolo[4,5-d]pyrimidine derivatives” (Merck Patent GmbH, priority 2012, dated 2016).
Values belong to the compound of their own block, whether it stands above or below them.

Key:
[1] = biological target: T1, GCN2 (Homo sapiens, UniProt Q9P2K8); experiment: GCN2 enzyme assay (TR-FRET Lanthascreen, phosphorylation of GFP-eIF2alpha); assay type: biochemical; conditions: 10 μM ATP, 80 nM GFP-eIF2alpha, 30 nM GCN2, room temperature
How it was run: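 Two-step TR-FRET (Lanthascreen) format: GCN2 incubated at room temperature with 10 μM ATP and 80 nM GFP-labelled eIF2alpha, then stopped with EDTA. Phospho-eIF2alpha detected by Tb-labelled antibody, excitation 340 nm; activity taken from the 520/495 nm emission ratio.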
Target sequence in this assay (Q9P2K8 whole entry, species assumed): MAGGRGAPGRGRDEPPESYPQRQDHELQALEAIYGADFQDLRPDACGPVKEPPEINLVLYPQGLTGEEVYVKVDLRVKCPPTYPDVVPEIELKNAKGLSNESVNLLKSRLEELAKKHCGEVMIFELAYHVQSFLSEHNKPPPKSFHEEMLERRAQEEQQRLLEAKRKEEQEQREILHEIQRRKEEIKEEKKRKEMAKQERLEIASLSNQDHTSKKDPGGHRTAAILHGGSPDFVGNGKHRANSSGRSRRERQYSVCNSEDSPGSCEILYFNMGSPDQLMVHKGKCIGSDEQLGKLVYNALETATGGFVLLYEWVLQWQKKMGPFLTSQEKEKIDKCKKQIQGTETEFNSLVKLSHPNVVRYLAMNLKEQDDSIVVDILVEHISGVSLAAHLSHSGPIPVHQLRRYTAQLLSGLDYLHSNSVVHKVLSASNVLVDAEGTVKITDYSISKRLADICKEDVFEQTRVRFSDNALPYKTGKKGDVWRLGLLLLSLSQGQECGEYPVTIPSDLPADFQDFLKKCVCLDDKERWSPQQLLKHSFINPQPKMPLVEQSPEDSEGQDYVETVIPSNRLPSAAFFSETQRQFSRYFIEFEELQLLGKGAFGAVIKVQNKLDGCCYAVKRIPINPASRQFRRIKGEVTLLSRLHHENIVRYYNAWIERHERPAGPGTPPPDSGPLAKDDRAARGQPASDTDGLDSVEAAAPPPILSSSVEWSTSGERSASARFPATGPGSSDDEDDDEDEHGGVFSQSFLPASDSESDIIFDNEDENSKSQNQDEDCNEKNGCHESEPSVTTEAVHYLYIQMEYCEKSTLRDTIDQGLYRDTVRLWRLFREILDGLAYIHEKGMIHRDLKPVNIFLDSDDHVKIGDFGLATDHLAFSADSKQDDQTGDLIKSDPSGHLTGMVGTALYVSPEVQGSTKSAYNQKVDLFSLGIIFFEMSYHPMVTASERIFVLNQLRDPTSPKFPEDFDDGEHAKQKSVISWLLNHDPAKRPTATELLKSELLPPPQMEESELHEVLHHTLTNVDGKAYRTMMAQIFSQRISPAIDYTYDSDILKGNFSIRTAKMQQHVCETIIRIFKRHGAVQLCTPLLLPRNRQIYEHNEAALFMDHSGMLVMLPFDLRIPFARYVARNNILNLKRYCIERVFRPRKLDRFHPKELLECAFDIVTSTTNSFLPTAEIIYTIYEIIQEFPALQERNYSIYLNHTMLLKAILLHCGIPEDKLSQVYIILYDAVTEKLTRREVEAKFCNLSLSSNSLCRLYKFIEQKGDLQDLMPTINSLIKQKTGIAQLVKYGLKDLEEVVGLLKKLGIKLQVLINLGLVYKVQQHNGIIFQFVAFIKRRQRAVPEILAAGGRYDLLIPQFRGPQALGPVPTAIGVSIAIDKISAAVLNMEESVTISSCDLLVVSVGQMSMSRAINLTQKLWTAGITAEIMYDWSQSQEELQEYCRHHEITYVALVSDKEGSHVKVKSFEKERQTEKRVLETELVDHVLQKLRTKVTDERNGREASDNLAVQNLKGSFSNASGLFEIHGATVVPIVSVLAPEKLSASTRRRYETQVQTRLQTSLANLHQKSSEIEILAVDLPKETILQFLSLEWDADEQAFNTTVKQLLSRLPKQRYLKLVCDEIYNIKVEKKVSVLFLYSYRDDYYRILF

[2] = biological target: T1, GCN2; experiment: Cellular assay for GCN2 activity (phospho-eIF2alpha immunocytochemistry, tryptophanol-stimulated U2OS cells); assay type: cell-based; parameters: endogenous in cells; host or cells: U2OS; conditions: 2 hours compound, then 600 μM tryptophanol 30 minutes, anti-phospho-eIF2alpha, read-out: IC50 GCN2 (cell assay)
Protocol: Cellular Assay for the Determination of Compound Activities
Human U2OS cells (2000 cells/well) are seeded into 384-well plates and incubated for 20 hours.
The next day, the cells are treated with the test compounds and incubated for 2 hours. Then, tryptophanol, at a final concentration of 600 μM, is added to the cells and those are incubated for 30 minutes.
The analysis of cellular GCN2 activities is done by immunocytochemistry. Briefly, cells are fixated on the well surfaces by formaldehyde and permeabilised with Triton X-100. The primary antibody (anti-phospho-eIF2alpha (Ser51, Cell Signalling Technology, #3398) is incubated on the treated cells for 20 hours, followed by a 60 minutes incubation of the secondary antibody (anti-rabbit-IgG-Alexa 488; Molecular Probes #11008). The analysis and quantification of phosphorylated GCN2 is done by scanning the plates in the Acumen Explorer system (TTPLabtech). The obtained data are normalised against the untreated control wells (DMSO only) and expressed as % effect values. The determination of IC50 values is done by using the Graph Pad Prism software.
Target sequence in this assay (Q9P2K8 whole entry): as the sequence (Q9P2K8 whole entry, species assumed) above

Structure (SMILES): OC[C@@H]1C[C@H]1Cn1cc(Nc2ncc3nnn(-c4ccc(Cl)c(F)c4)c3n2)cn1 (relative stereo) [Compound A98, ((trans)-2-{4-[3-(4-chloro-3-fluoro-phenyl)-3H-[1,2,3]triazolo[4,5-d]pyrimidin-5-ylamino]-pyrazol-1-ylmethyl}-cyclopropyl)-methanol]
IC50 [1]: < 300 nM | IC50 [2]: 300 to 3000 nM

Structure (SMILES): COc1ccc(-n2nnc3cnc(Nc4cnn(-c5ccccc5)c4)nc32)cc1 [Compound A1, [3-(4-methoxy-phenyl)-3H-[1,2,3]triazolo[4,5-d]pyrimidin-5-yl]-(1-phenyl-1H-pyrazol-4-yl)-amine]
IC50 [1]: 300 to 3000 nM | IC50 [2]: 3000 to 50000 nM

Structure (SMILES): COc1ccc(-n2nnc3cnc(Nc4cn[nH]c4)nc32)cc1 [Compound A3, [3-(4-methoxy-phenyl)-3H-[1,2,3]triazolo[4,5-d]pyrimidin-5-yl]-(1H-pyrazol-4-yl)-amine]
IC50 [1]: < 300 nM | IC50 [2]: 3000 to 50000 nM

Structure (SMILES): c1ccc(-n2nnc3cnc(Nc4cn[nH]c4)nc32)cc1 [Compound A4, (3-phenyl-3H-[1,2,3]triazolo[4,5-d]pyrimidin-5-yl)-(1H-pyrazol-4-yl)-amine]
IC50 [1]: < 300 nM | IC50 [2]: 3000 to 50000 nM

Structure (SMILES): COc1ccc(-n2nnc3cnc(Nc4cnn(C5CCNCC5)c4)nc32)cc1 [Compound A6, [3-(4-methoxy-phenyl)-3H-[1,2,3]triazolo[4,5-d]pyrimidin-5-yl]-(1-piperidin-4-yl-1H-pyrazol-4-yl)-amine]
IC50 [1]: < 300 nM | IC50 [2]: 300 to 3000 nM

Structure (SMILES): COc1ccc(-n2nnc3cnc(Nc4cnn(C5COC5)c4)nc32)cc1 [Compound A23, 3-(4-methoxyphenyl)-N-[1-(oxetan-3-yl)pyrazol-4-yl]triazolo[4,5-d]pyrimidin-5-amine]
IC50 [1]: < 300 nM | IC50 [2]: 300 to 3000 nM

Structure (SMILES): CCOc1ccc(-n2nnc3cnc(Nc4cnn(CC)c4)nc32)cc1 [Compound A46, [3-(4-ethoxy-phenyl)-3H-[1,2,3]triazolo[4,5-d]pyrimidin-5-yl]-(1-ethyl-1H-pyrazol-4-yl)-amine]
IC50 [1]: < 300 nM | IC50 [2]: 300 to 3000 nM

Structure (SMILES): CCOc1ccc(-n2nnc3cnc(Nc4cnn(CCCOC)c4)nc32)cc1 [Compound A49, [3-(4-ethoxy-phenyl)-3H-[1,2,3]triazolo[4,5-d]pyrimidin-5-yl]-[1-(3-methoxy-propyl)-1H-pyrazol-4-yl]-amine]
IC50 [1]: < 300 nM | IC50 [2]: 3000 to 50000 nM

Structure (SMILES): CCOc1ccc(-n2nnc3cnc(Nc4cnn(CCOC(C)(C)C)c4)nc32)cc1 [Compound A51, [1-(2-tert-butoxy-ethyl)-1H-pyrazol-4-yl]-[3-(4-ethoxy-phenyl)-3H-[1,2,3]triazolo[4,5-d]pyrimidin-5-yl]-amine]
IC50 [1]: < 300 nM | IC50 [2]: 300 to 3000 nM

Structure (SMILES): CCOc1ccc(-n2nnc3cnc(Nc4cnn(CCn5cccn5)c4)nc32)cc1 [Compound A54, [3-(4-ethoxy-phenyl)-3H-[1,2,3]triazolo[4,5-d]pyrimidin-5-yl]-[1-(2-pyrazol-1-yl-ethyl)-1H-pyrazol-4-yl]-amine]
IC50 [1]: < 300 nM | IC50 [2]: 300 to 3000 nM

Structure (SMILES): COCCOc1ccc(-n2nnc3cnc(Nc4cnn(C)c4)nc32)cc1 [Compound A56, {3-[4-(2-methoxy-ethoxy)-phenyl]-3H-[1,2,3]triazolo[4,5-d]pyrimidin-5-yl}-(1-methyl-1H-pyrazol-4-yl)-amine]
IC50 [1]: < 300 nM | IC50 [2]: 300 to 3000 nM

Structure (SMILES): COCCOc1ccc(-n2nnc3cnc(Nc4cnn(CCn5cccn5)c4)nc32)cc1 [Compound A65, {3-[4-(2-methoxy-ethoxy)-phenyl]-3H-[1,2,3]trtazolo[4,5-d]pyrimidin-5-yl}-[1-(2-pyrazol-1-yl-ethyl)-1H-pyrazol-4-yl]-amine]
IC50 [1]: < 300 nM | IC50 [2]: 300 to 3000 nM

Structure (SMILES): CCn1cc(Nc2ncc3nnn(-c4ccc(C(N)=O)cc4)c3n2)cn1 [Compound A70, 4-[5-(1-ethyl-1H-pyrazol-4-ylamino)-[1,2,3]triazolo[4,5-d]pyrimidin-3-yl]-benzamide]
IC50 [1]: < 300 nM | IC50 [2]: 3000 to 50000 nM

Structure (SMILES): CCn1cc(Nc2ncc3nnn(-c4ccc5ncccc5c4)c3n2)cn1 [Compound A71, (1-ethyl-1H-pyrazol-4-yl)-(3-quinolin-6-yl-3H-[1,2,3]triazolo[4,5-d]pyrimidin-5-yl)-amine]
IC50 [1]: < 300 nM | IC50 [2]: 300 to 3000 nM

Now from value to compound:

IC50 [1]: < 300 nM | IC50 [2]: 300 to 3000 nM
Structure (SMILES): COc1ccc(-n2nnc3cnc(Nc4cnn(C5CCN(C)CC5)c4)nc32)cc1 [Compound A8, [3-(4-methoxy-phenyl)-3H-[1,2,3]triazolo[4,5-d]pyrimidin-5-yl]-[1-(1-methyl-piperidin-4-yl)-1H-pyrazol-4-yl]-amine]

IC50 [1]: 300 to 3000 nM | IC50 [2]: 300 to 3000 nM
Structure (SMILES): CN1CCC(n2cc(Nc3ncc4nnn(-c5ccccc5)c4n3)cn2)CC1 [Compound A11, [1-(1-methyl-piperidin-4-yl)-1H-pyrazol-4-yl]-(3-phenyl-3H-[1,2,3]triazolo[4,5-d]pyrimidin-5-yl)-amine]

IC50 [1]: < 300 nM | IC50 [2]: 300 to 3000 nM
Structure (SMILES): COCCN1CCC(n2cc(Nc3ncc4nnn(-c5ccc(OC)cc5)c4n3)cn2)CC1 [Compound A26, N-[1-[1-(2-methoxyethyl)-4-piperidyl]pyrazol-4-yl]-3-(4-methoxyphenyl)triazolo[4,5-d]pyrimidin-5-amine]

IC50 [1]: < 300 nM | IC50 [2]: 300 to 3000 nM
Structure (SMILES): COCCOc1ccc(-n2nnc3cnc(Nc4cnn(C5CCN(C)CC5)c4)nc32)cc1 [Compound A27, 3-[4-(2-methoxyethoxy)phenyl]-N-[1-(1-methyl-4-piperidyl)pyrazol-4-yl]triazolo[4,5-d]pyrimidin-5-amine]

IC50 [1]: < 300 nM | IC50 [2]: 300 to 3000 nM
Structure (SMILES): CCOc1ccc(-n2nnc3cnc(Nc4cnn(C5CCN(C)CC5)c4)nc32)cc1 [Compound A28, 3-(4-ethoxyphenyl)-N-[1-(1-methyl-4-piperidyl)pyrazol-4-yl]triazolo[4,5-d]pyrimidin-5-amine]

IC50 [1]: < 300 nM | IC50 [2]: 300 to 3000 nM
Structure (SMILES): COc1cc(-n2nnc3cnc(Nc4cnn(C5CCN(C)CC5)c4)nc32)ccn1 [Compound A30, 3-(2-methoxy-4-pyridyl)-N-[1-(1-methyl-4-piperidyl)pyrazol-4-yl]triazolo[4,5-d]pyrimidin-5-amine]

IC50 [1]: < 300 nM | IC50 [2]: 300 to 3000 nM
Structure (SMILES): CN1CCC(n2cc(Nc3ncc4nnn(-c5ccc(Cl)c(F)c5)c4n3)cn2)CC1 [Compound A44, [3-(4-chloro-3-fluoro-phenyl)-3H-[1,2,3]triazolo[4,5-d]pyrimidin-5-yl]-[1-(1-methyl-piperidin-4-yl)-1H-pyrazol-4-yl]-amine]

IC50 [1]: < 300 nM | IC50 [2]: 300 to 3000 nM
Structure (SMILES): CN1CCC(n2cc(Nc3ncc4nnn(-c5ccc(N6CCCC6=O)cc5)c4n3)cn2)CC1 [Compound A48, 1-(4-{5-[1-(1-methyl-piperidin-4-yl)-1H-pyrazol-4-ylamino]-[1,2,3]triazolo[4,5-d]pyrimidin-3-yl}-phenyl)-pyrrolidin-2-one]

IC50 [1]: < 300 nM | IC50 [2]: 3000 to 50000 nM
Structure (SMILES): CN1CCC(n2cc(Nc3ncc4nnn(-c5cccc(C(N)=O)c5)c4n3)cn2)CC1 [Compound A67, 3-{5-[1-(1-methyl-piperidin-4-yl)-1H-pyrazol-4-ylamino]-[1,2,3]triazolo[4,5-d]pyrimidin-3-yl}-benzamide]

IC50 [1]: 300 to 3000 nM | IC50 [2]: 3000 to 50000 nM
Structure (SMILES): CCn1cc(Nc2ncc3nnn(-c4cccc(C(N)=O)c4)c3n2)cn1 [Compound A68, 3-[5-(1-ethyl-1H-pyrazol-4-ylamino)-[1,2,3]triazolo[4,5-d]pyrimidin-3-yl]-benzamide]

IC50 [1]: < 300 nM | IC50 [2]: 300 to 3000 nM
Structure (SMILES): CN1CCC(n2cc(Nc3ncc4nnn(-c5ccc(C(N)=O)cc5)c4n3)cn2)CC1 [Compound A69, 4-{5-[1-(1-methyl-piperidin-4-yl)-1H-pyrazol-4-ylamino]-[1,2,3]triazolo[4,5-d]pyrimidin-3-yl}-benzamide]

IC50 [1]: < 300 nM | IC50 [2]: 3000 to 50000 nM
Structure (SMILES): CN1CCC(n2cc(Nc3ncc4nnn(-c5ccc6cccnc6c5)c4n3)cn2)CC1 [Compound A73, [1-(1-methyl-piperidin-4-yl)-1H-pyrazol-4-yl]-(3-quinolin-7-yl-3H-[1,2,3]triazolo[4,5-d]pyrimidin-5-yl)-amine]

IC50 [1]: < 300 nM | IC50 [2]: 300 to 3000 nM
Structure (SMILES): CN1CCC(n2cc(Nc3ncc4nnn(-c5ccc6ncccc6c5)c4n3)cn2)CC1 [Compound A75, [1-(1-methyl-piperidin-4-yl)-1H-pyrazol-4-yl]-(3-quinolin-6-yl-3H-[1,2,3]triazolo[4,5-d]pyrimidin-5-yl)-amine]

IC50 [1]: < 300 nM | IC50 [2]: 3000 to 50000 nM
Structure (SMILES): COCCN1CCC(n2cc(Nc3ncc4nnn(-c5ccnc(OC)c5)c4n3)cn2)CC1 [Compound A76, {1-[1-(2-methoxy-ethyl)-piperidin-4-yl]-1H-pyrazol-4-yl}-[3-(2-methoxy-pyridin-4-yl)-3H-[1,2,3]triazolo[4,5-d]pyrimidin-5-yl]-amine]

IC50 [1]: < 300 nM | IC50 [2]: 300 to 3000 nM
Structure (SMILES): COc1ccc(-n2nnc3cnc(Nc4cnn(C5CCN(C)CC5)c4)nc32)nc1 [Compound A77, [3-(5-methoxy-pyridin-2-yl)-3H-[1,2,3]triazolo[4,5-d]pyrimidin-5-yl]-[1-(1-methyl-piperidin-4-yl)-1H-pyrazol-4-yl]-amine]

IC50 [1]: < 300 nM | IC50 [2]: 300 to 3000 nM
Structure (SMILES): CCn1cc(-n2nnc3cnc(Nc4cnn(C5CCN(C)CC5)c4)nc32)cn1 [Compound A79, [3-(1-ethyl-1H-pyrazol-4-yl)-3H-[1,2,3]triazolo[4,5-d]pyrimidin-5-yl]-[1-(1-methyl-piperidin-4-yl)-1H-pyrazol-4-yl]-amine]
